Test results: patent US11897862B2 (Gilead Sciences, Inc., priority 2022, dated 2024)

Key:
IKZF2 = IKZF2 (Homo sapiens, UniProt Q96SW2+Q9UKS7); assay: HEK293 HiBiT in vitro degradation of IKZF2; type: cell-based; set-up: expressed in transfected cells; conditions: for Dmax: HEK293, HEK293 HiBiT; for Dmax / IKZF2 Dmax: maximum degradation at the highest concentration tested; for DC50 / IKZF2 Dmax: HEK293 HiBiT; for DC50: 18-24 hr incubation, normalized to DMSO control, read-out: IKZF2 EC50
Experimental: (§1) In vitro degradation of IKZF1, IKZF2, and SALL4 was measured using HiBiT protein tagging and detection technology (Promega).
(§2) HiBit technology was used to develop the quantitative assays to measure the cellular IKZFs level by tagging an 11 amino acid HiBit peptides […] to the protein of interest. Reporter plasmids were generated by fusing a linker sequence ([…]) followed by the HiBit tag at the C-terminus of IKZF1, IKZF2, and SALL4. The fusion fragments were subsequently cloned into pcDNA5 pcDNA™5/FRT/TO plasmids (Thermo Fisher, cat #V652020) downstream of the tetracycline operator. The resulting plasmids were co-transfected with pOG44 Flp-Recombinase Expression Vector (Thermo Fisher, cat #V600520) into Flp-In™ T-REx HEK293 line (Thermo Fisher, cat #R78077) and a stable cell pool was selected by adding 100 µg/ml of Hygromycin (Thermo Fisher, cat #10687010). The reporter cell enabled Tet-On inducible reporter expression from a single copy of the integrated gene.
(§3) On Day 1, Cells were grown to ˜80% confluency in tissue culture medium (DMEM Glutamax (Gibco10569), 10% Tet free FBS (Takara 631106), and PenStrep Glutamin (Gibco 10378)) in tissue culture flasks. Doxycycline was then added to a final concentration of […] to induce reporter expression at 37° C. overnight.
(§4) On Day 2, 125 nL of serially-diluted solution of testing compounds were dispensed into 384-well white solid assay plates via ECHO acoustic liquid handler. Cells were lifted by 0.25% Trypsin (Gibco 25200) then pelleted by centrifugation (Beckman Avanti J-E) at 500×g for 5 min. Cell pellets were resuspended in TC medium at the concentration of 3e5/mL and 25 μL of cell suspension were added into each well of compound-spotted plates. The plates were returned to a 37° C. incubator overnight (18-24 hr).
(§5) On Day 3, assay plates were removed from the tissue culture incubator and 25 μL of Nano-Glo lytic detection system (Promega, cat #N3030) was added to each well. Plates were incubated at r.t. for 3 min with shaking, and luminescence was read using an Envision reader (Perkin Elmer).
(§6) To assess the IKZF1, IKZF2, and SALL4 degrader potential of exemplified compounds of this disclosure and certain Reference Compounds EC50 and Dmax values were determined for the compounds of Examples 1 to 383 and Reference Compounds A-1, B-1, B-2, B-3, B-4, and C-1 in the HiBiT assays. Asterisks (*) indicate examples for which the data shown represents an average of n≥3.

IKZF1 = target: T1, IKZF1 (Homo sapiens, UniProt Q13422+Q96SW2); assay: HEK293 HiBiT in vitro degradation of IKZF1; type: cell-based; conditions: for DC50 / IKZF1 Dmax: HEK293 HiBiT; for DC50: 18-24 hr incubation, normalized to DMSO control, read-out: IKZF1 EC50; for Dmax: HEK293, HEK293 HiBiT; for Dmax / IKZF1 Dmax: maximum degradation at the highest concentration tested
T1 construct: expressed in transfected cells
Experimental: as §1, §2, §3, §4, §5, §6

T1 sequence (Q13422 whole entry): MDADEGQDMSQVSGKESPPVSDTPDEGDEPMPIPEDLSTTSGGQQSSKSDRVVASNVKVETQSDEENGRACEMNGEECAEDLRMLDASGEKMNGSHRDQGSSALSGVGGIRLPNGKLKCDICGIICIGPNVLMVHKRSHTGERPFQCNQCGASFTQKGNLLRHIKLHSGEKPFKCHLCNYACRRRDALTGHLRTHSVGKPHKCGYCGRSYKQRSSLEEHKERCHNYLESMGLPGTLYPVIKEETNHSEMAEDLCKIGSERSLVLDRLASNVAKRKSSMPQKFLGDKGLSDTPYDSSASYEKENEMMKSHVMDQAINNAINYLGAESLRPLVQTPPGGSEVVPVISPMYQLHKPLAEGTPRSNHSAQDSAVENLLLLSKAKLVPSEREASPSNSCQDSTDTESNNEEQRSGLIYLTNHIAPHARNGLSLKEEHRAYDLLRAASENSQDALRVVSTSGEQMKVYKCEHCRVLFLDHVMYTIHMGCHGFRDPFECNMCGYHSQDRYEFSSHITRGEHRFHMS
T1 sequence (Q96SW2 whole entry): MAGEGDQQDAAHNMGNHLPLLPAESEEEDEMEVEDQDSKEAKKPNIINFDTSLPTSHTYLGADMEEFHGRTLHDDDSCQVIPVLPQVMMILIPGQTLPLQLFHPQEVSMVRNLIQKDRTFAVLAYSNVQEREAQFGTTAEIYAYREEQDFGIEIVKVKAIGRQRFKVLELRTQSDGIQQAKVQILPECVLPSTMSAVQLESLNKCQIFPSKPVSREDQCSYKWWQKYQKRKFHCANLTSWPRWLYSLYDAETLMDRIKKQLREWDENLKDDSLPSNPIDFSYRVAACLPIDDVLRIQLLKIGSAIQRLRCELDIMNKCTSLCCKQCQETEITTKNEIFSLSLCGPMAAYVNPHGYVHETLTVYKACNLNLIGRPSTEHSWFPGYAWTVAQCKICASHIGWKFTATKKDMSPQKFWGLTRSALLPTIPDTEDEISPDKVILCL
T1 sequence (Q16531 whole entry partner): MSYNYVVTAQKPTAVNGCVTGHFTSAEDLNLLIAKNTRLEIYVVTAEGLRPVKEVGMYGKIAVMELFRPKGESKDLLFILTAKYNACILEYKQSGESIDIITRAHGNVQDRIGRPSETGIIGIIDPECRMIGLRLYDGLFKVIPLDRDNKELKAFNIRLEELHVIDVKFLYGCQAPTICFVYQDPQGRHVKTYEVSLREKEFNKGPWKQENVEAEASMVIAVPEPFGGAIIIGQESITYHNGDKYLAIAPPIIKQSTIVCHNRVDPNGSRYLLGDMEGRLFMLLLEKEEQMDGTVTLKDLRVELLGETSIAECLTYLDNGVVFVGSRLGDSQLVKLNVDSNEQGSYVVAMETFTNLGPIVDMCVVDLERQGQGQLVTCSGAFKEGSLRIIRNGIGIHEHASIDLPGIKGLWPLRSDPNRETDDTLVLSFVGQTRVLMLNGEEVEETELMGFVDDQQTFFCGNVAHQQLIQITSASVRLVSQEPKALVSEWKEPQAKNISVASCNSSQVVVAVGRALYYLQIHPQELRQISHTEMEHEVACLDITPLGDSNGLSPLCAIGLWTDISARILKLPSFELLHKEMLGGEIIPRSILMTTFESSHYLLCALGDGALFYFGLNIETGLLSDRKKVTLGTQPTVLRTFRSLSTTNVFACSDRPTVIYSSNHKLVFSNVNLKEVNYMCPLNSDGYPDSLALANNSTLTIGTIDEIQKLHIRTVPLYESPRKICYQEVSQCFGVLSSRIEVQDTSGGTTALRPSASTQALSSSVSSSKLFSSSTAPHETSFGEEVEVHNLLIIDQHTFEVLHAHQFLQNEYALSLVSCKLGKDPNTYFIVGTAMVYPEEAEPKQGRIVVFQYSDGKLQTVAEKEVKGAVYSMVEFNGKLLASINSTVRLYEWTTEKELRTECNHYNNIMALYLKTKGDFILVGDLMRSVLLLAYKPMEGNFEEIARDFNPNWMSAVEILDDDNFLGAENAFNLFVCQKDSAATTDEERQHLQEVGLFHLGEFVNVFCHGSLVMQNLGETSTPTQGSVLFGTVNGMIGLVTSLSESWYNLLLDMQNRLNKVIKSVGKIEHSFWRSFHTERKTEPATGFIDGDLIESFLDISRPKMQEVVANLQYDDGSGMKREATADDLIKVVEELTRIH
Sequence of IKZF2 (Q9UKS7 1-500 isoform Q9UKS7-2): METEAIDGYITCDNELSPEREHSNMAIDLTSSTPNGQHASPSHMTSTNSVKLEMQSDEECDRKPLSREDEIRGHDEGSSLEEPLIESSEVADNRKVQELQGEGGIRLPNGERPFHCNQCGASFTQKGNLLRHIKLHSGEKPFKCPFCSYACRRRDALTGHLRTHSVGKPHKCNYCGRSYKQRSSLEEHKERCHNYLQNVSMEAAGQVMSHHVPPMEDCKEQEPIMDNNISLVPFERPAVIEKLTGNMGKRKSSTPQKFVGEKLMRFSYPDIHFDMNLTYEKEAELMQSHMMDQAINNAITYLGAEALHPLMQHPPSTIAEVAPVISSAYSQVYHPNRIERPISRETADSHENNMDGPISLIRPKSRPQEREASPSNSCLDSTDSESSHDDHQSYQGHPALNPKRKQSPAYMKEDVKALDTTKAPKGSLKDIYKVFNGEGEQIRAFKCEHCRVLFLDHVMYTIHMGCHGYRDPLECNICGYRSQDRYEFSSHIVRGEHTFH
Sequence of IKZF2 (Q96SW2 whole entry): as the sequence (Q96SW2 whole entry) above
Sequence of IKZF2 (Q16531 whole entry partner): as the sequence (Q16531 whole entry partner) above

Structure (SMILES)	Dmax (IKZF2) [%]	DC50 (IKZF2) [nM]	DC50 (IKZF1) [nM]	IKZF2 Dmax (IKZF2) [%]	Dmax (IKZF1) [%]	IKZF1 Dmax (IKZF1) [%]
O=C1CC[C@H](N2Cc3cc(C[C@H]4CCCC[C@@H]4NC4CCCCC4)ccc3C2=O)C(=O)N1 (single isomer, unassigned) [Example 336]	97	3	> 1000	–	–	–
O=C1CC[C@@H](N2Cc3cc(C[C@H]4CCCC[C@@H]4NC4CCCCC4)ccc3C2=O)C(=O)N1 (single isomer, unassigned) [Example 337]	95	5	> 1000	–	–	–
O=C1CC[C@H](N2Cc3c(ccc(C[C@H]4OCCC[C@@H]4NC4CCCCC4)c3F)C2=O)C(=O)N1 (single isomer, unassigned) [Example 338]	92	6	> 1000	–	–	–
O=C1CC[C@@H](N2Cc3c(ccc(C[C@H]4OCCC[C@@H]4NC4CCCCC4)c3F)C2=O)C(=O)N1 (single isomer, unassigned) [Example 339]	93	11	> 1000	–	–	–
O=C1CCC(N2Cc3cc(C[C@H]4OCCC[C@@H]4NC4CCC(C(F)(F)F)CC4)ccc3C2=O)C(=O)N1 (single isomer, unassigned) [Example 356]	76	49	> 1000	–	–	–
O=C1CCC(N2Cc3cc(C[C@H]4OCCC[C@@H]4NC4CCC(C(F)(F)F)CC4)ccc3C2=O)C(=O)N1 (single isomer, unassigned) [Example 357]	–	23	465	89	40	–
O=C1CCC(N2Cc3cc(C[C@H]4CCCC[C@@H]4NC4CCc5cn[nH]c5C4)ccc3C2=O)C(=O)N1 (single isomer, unassigned) [Example 358]	100	18	231	–	34	–
O=C1CCC(N2Cc3cc(C[C@H]4CCCC[C@@H]4NC4CCc5cn[nH]c5C4)ccc3C2=O)C(=O)N1 (single isomer, unassigned) [Example 359]	–	9	249	101	–	43
O=C1CCC(N2Cc3c(ccc(C[C@H]4OCCC[C@@H]4NC4CCc5cn[nH]c5C4)c3F)C2=O)C(=O)N1 (single isomer, unassigned) [Example 360]	90	139	> 1000	–	–	–
O=C1CCC(N2Cc3c(ccc(C[C@H]4OCCC[C@@H]4NC4CCc5cn[nH]c5C4)c3F)C2=O)C(=O)N1 (single isomer, unassigned) [Example 361]	–	34	> 1000	102	–	–
O=C1CCC(N2Cc3c(ccc(C[C@H]4OCCC[C@@H]4NC4CCC5(CC4)CC5(F)F)c3F)C2=O)C(=O)N1 (single isomer, unassigned) [Example 365]	–	3	122	95	–	43
CC(N[C@H]1CCCC[C@@H]1Cc1ccc2c(c1)CN(C1CCC(=O)NC1=O)C2=O)C1CCS(=O)(=O)CC1 (single isomer, unassigned) [Example 370]	95	10	117	–	53	–
CC(N[C@H]1CCCC[C@@H]1Cc1ccc2c(c1)CN(C1CCC(=O)NC1=O)C2=O)C1CCS(=O)(=O)CC1 (single isomer, unassigned) [Example 371]	–	62	461	94	–	50
O=C1CC[C@@H](N2Cc3c(ccc(C[C@H]4OCCC[C@@H]4N[C@H]4CC[C@@H](F)CC4)c3F)C2=O)C(=O)N1 (single isomer, unassigned) [Example 372]	94	5	> 1000	–	–	–
O=C1CCC(N2Cc3cc(C[C@H]4CC(CO)CC[C@@H]4NC4CCCCC4)ccc3C2=O)C(=O)N1 (single isomer, unassigned) [Example 382]	–	629	> 1000	48	–	–
O=C1CCC(N2Cc3cc(C[C@H]4CC(CO)CC[C@@H]4NC4CCCCC4)ccc3C2=O)C(=O)N1 (single isomer, unassigned) [Example 383]	–	226	> 1000	77	–	–
N[C@H]1CCCC[C@@H]1Cc1ccc2c(c1)CN(C1CCC(=O)NC1=O)C2=O (stereo partly drawn) [Example 1, 3-(5-(((1R,2S)-2-aminocyclohexyl)methyl)-1-oxoisoindolin-2-yl)piperidine-2,6-dione]	82	225	933	–	30	–
O=C1CCC(N2Cc3cc(C[C@H]4CCCC[C@@H]4NCc4ccccc4Cl)ccc3C2=O)C(=O)N1 (stereo partly drawn) [Example 3, 3-(5-(((1R,2S)-2-((2-chlorobenzyl)amino)cyclohexyl)methyl)-1-oxoisoindolin-2-yl)piperidine-2,6-dione]	94	19	34	–	38	–
O=C1CCC(N2Cc3cc(C[C@H]4CCCC[C@@H]4NCc4ccccc4)c(F)cc3C2=O)C(=O)N1 (stereo partly drawn) [Example 4, 3-(5-(((1R,2S)-2-(benzylamino)cyclohexyl)methyl)-6-fluoro-1-oxoisoindolin-2-yl)piperidine-2,6-dione]	92	58	130	–	26	–
O=C1CCC(N2Cc3c(ccc(C[C@H]4CCCC[C@@H]4N(Cc4ccccc4)Cc4ccccc4)c3F)C2=O)C(=O)N1 (stereo partly drawn) [Example 5, 3-(5-(((1R,2S)-2-(dibenzylamino)cyclohexyl)methyl)-4-fluoro-1-oxoisoindolin-2-yl)piperidine-2,6-dione]	92	353	> 1000	–	–	–
O=C1CCC(N2Cc3cc(C[C@H]4CCCC[C@@H]4NCc4cncs4)ccc3C2=O)C(=O)N1 (stereo partly drawn) [Example 6, 3-(1-oxo-5-(((1R,2S)-2-((thiazol-5-ylmethyl)amino)cyclohexyl)methyl)isoindolin-2-yl)piperidine-2,6-dione]	90	30	122	–	32	–
O=C1CCC(N2Cc3cc(C[C@H]4CCCC[C@@H]4NCC4CC4)ccc3C2=O)C(=O)N1 (stereo partly drawn) [Example 8, 3-(5-(((1R,2S)-2-((cyclopropylmethyl)amino)cyclohexyl)methyl)-1-oxoisoindolin-2-yl)piperidine-2,6-dione]	94	47	229	–	34	–
O=C1CCC(N2Cc3cc(C[C@H]4CCCC[C@@H]4NCc4ccc5ccccc5c4)ccc3C2=O)C(=O)N1 (stereo partly drawn) [Example 9, 3-(5-(((1R,2S)-2-((naphthalen-2-ylmethyl)amino)cyclohexyl)methyl)-1-oxoisoindolin-2-yl)piperidine-2,6-dione]	92	19	> 1000	–	–	–
O=C1CCC(N2Cc3cc(C[C@H]4CCCC[C@@H]4NCC4CCC(F)(F)CC4)ccc3C2=O)C(=O)N1 (stereo partly drawn) [Example 10, 3-(5-(((1R,2S)-2-(((4,4-difluorocyclohexyl)methyl)amino)cyclohexyl)methyl)-1-oxoisoindolin-2-yl)piperidine-2,6-dione]	96	13	388	–	46	–
O=C1CCC(N2Cc3c(ccc(C[C@H]4CCCC[C@@H]4NCc4ccccc4)c3F)C2=O)C(=O)N1 (stereo partly drawn) [Example 11, 3-(5-(((1R,2S)-2-(benzylamino)cyclohexyl)methyl)-4-fluoro-1-oxoisoindolin-2-yl)piperidine-2,6-dione]	98	7	> 1000	–	–	–
CS(=O)(=O)c1ccc(CN[C@H]2CCCC[C@@H]2Cc2ccc3c(c2)CN(C2CCC(=O)NC2=O)C3=O)cc1 (stereo partly drawn) [Example 12, 3-(5-(((1R,2S)-2-((4-(methylsulfonyl)benzyl)amino)cyclohexyl)methyl)-1-oxoisoindolin-2-yl)piperidine-2,6-dione]	85	106	> 1000	–	–	–
O=C1CCC(N2Cc3cc(C[C@H]4CCCC[C@@H]4NCc4cc(Cl)cc(Cl)c4)ccc3C2=O)C(=O)N1 (stereo partly drawn) [Example 13, 3-(5-(((1R,2S)-2-((3,5-dichlorobenzyl)amino)cyclohexyl)methyl)-1-oxoisoindolin-2-yl)piperidine-2,6-dione]	68	79	> 1000	–	–	–
